Results published in patent US11160862B2, “Nanoemulsion adjuvant for nasal mucosa and preparation method thereof” (NATIONAL HEALTH RESEARCH INSTITUTES, priority 2017, dated 2021).

Test system: B16-F10/OVA cells
Test: Lung metastasis after intranasal melanoma vaccination, pathological observation of lung
Assay type: in vivo
Conditions: C57BL/6 mice inoculated with B16-F10/OVA cells, intranasal 100 μg/dose once a week for 3 weeks, one week after final vaccination
Protocol: 6-week old female C57BL/6 mice were intravascularly inoculated with B16-F10/OVA cells (melanoma cells expressing OVA epitopes, 5×10^5 cells/mouse). One week later, mice were divided into 4 groups (n=6 per group): vaccinated with PBS, ovalbumin (OVA), OVA adjuvanted with 0.1% PELC and OVA adjuvanted with nanoPELC. The mice were intranasally vaccinated with PBS or OVA formulation (100 μg/dose) once a week for 3 weeks. One week after the final vaccination, some of the mice were sacrificed, and the lung was isolated for pathological observation.

Substance: ovalbumin
- melanoma infection area in the lungs (lung metastasis): not as serious as the PBS group, but it still had a certain area
